Publication PMC7175314, “Development of Novel ^111-In-Labelled DOTA Urotensin II Analogues for Targeting the UT Receptor Overexpressed in Solid Tumours” (Biomolecules, 2020)
Where a SMILES comes first, the peptide text is derived from it. Bridges are numbered along the chain shown (N, C = ends). [ ]: non-standard residue; d: D form. The star is where a group is joined. DOTA = O=C(O)CN1CCN(CC(=O)O)CCN(CC(=O)*)CCN(CC(=O)O)CC1; Pen = CC(C)(S)[C@H](N)C(=O)O; Orn = NCCC[C@H](N)C(=O)O; Ahx = NCCCCCC(=O)O

Tests used:
human UT-GFP = target: T1, human UT-GFP (Homo sapiens, UniProt Q9UKP6); test: UT internalisation by confocal microscopy in HEK-293 cells expressing UT-GFP; assay type: cell-based; details: 10^−7 M, 1 h
T1 construct: expressed in transfected cells; host or cells: HEK-293 (transient)
T1 sequence (Q9UKP6 1-389): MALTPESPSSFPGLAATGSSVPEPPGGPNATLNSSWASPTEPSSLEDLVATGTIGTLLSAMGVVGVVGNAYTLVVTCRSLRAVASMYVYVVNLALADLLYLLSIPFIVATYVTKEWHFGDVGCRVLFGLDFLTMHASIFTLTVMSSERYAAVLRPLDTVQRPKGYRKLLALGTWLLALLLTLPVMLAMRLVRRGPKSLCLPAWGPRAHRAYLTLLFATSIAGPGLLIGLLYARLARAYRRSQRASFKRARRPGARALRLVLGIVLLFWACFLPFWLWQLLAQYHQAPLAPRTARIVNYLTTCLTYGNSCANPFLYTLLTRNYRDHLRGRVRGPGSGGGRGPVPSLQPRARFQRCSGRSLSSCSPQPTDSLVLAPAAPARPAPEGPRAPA
Description: For cytochemistry experiments, HEK-293 cells expressing UT-GFP were seeded at 70,000 cells/well into transparent, 24-well plates (Corning, Bagneaux-sur-Loing, France), previously coated with human fibronectin (25 µg/mL, overnight, 4 °C) and incubated overnight in culture medium. […] Cells were rinsed with PBS, fixed with paraformaldehyde (4%, 10 min) and counterstained with DAPI (1 µg/mL, 5 min) to label nuclei. Image analysis was performed by confocal microscopy (Leica TCS SP8 confocal laser scanning microscope).

human UT [1] = target: T2, human UT (Homo sapiens, UniProt Q9UKP6); test: UT internalisation assay (ELISA) in HEK-293 cells expressing UT-MYC; assay type: cell-based; details: 1 h, graded concentrations up to 10^−6 M
T2 construct: expressed in transfected cells; host or cells: HEK-293
T2 sequence (Q9UKP6 1-389): T1 sequence (Q9UKP6 1-389)
Description: For ELISA experiments, HEK-293 cells expressing UT-MYC were plated at 10,000 cells/well into white, 96-well plates (Corning, Bagneaux-sur-Loing, France), previously coated with poly-L-ornithine (100 µg/mL, 1 h, 37 °C) and incubated overnight in culture medium. […] Cells were permeabilised or not with Triton X-100 (0.05%, 5 min). Non-specific binding sites were blocked with FBS (10%) and normal donkey serum (NDS, 2%, 1 h). Cells were then incubated with anti-MYC antibody (1 h, 20 °C) followed by incubation with GAM-HRP (1 h, 20 °C). After washes, chemoluminescence was detected with an ELISA kit (ThermoFisher Scientific, Montigny-Le-Bretonneux, France) and the InfinitePro200 plate reader (TECAN FRANCE, Lyon). Data are expressed as the ratio between intensity measured on the permeabilised cells and that measured on the non-permeabilised cells, compared to the average control value.

DLD-1 cells [2] = test: Cell proliferation, DLD-1; assay type: cell-based, human; details: 10^−9 or 10^−7 M, only observable after 48 h
A549 cells [3] = test: Cell migration assay (modified Boyden chamber), A549; assay type: cell-based, human; details: 10^−9 or 10^−7 M, 24 h
Description: (§1) DLD-1 and A549 cells were seeded (50,000 cells) on transwell filters with 8-µm pores previously coated with human fibronectin (25 µg/mL, 4 °C, overnight) in serum-free medium on the upper chamber. […] After 24 h incubation period at 37 °C, filters were rinsed with PBS and non-migrating cells were removed from the upper surface by using a cotton-swab. Migrating cells were fixed in successive baths of methanol (50, 70, 90 and 100%), stained with eosin and haematoxylin and filters were mounted on glass slides with Mowiol. Random phase contrast images of filters were then recorded, using a digital camera connected to a Nikon microscope (Eclipse TS-100) and image analysis was performed by using Image J’s Cell Counter. The data were represented as the ratio of treatment chemoattraction normalised to control.

A549 cells [4] = test: Cell proliferation, A549; assay type: cell-based, human; details: 10^−9 or 10^−7 M, only observable after 48 h
DLD-1 cells [5] = test: Cell migration assay (modified Boyden chamber), DLD-1; assay type: cell-based, human; details: 10^−9 or 10^−7 M, 24 h
Description: as §1

in vivo = test: in vivo; parameters: species or system Swiss (nu/nu) mice; details: Swiss (nu/nu), mouse, iv, 2 MBq
Description: For tumour targeting studies, inocula (100 µL) containing a suspension of 5 × 10^6 freshly harvested A549 or DLD-1 cells in phosphate buffered-saline were injected subcutaneously into the right shoulder blade in Swiss (nu/nu) mice (n = 5 in each group). When the tumour size reached 250 mm^3 (approximatively 2-weeks), 2 MBq of ^111In-DOTA-hUII or ^111In-DOTA-urantide were injected into the tail vein. After 24 h, animals were sacrificed, and tumours were collected, directly frozen in isopentane (−50 °C) and stored at −80 °C.

[6] = parameters: species or system C57BL/6 mice; details: mouse, in vivo, iv
Description: For biodistribution studies, C57BL6/6 wild-type mice were injected with ^111In-DOTA-hUII (3 MBq, 100 µL) into the tail vein. Mice were sacrificed at 4, 24, 48 and 72 h post-injection and blood and organs were collected. All samples were analysed with a gamma counter and the data presented were calculated as the percent injected dose per gram of tissue (% ID/g). Data were expressed as mean ± SEM obtained from four animals per kinetic time.

in vitro = in vitro ADME, human
Description: The mixture was incubated in a 5% CO2, 37 °C and 100 μL aliquots (in triplicates) were removed at different time points and treated with 200 μL of EtOH to precipitate serum proteins. Samples were then centrifuged for 15 min at 2500g and after centrifugation, 50 μL of supernatant was counted, and also analysed by thin layer chromatography to determine the amount of intact peptide and its metabolites in the serum.

human UT [7] = target: T2, human UT; test: Competition binding of ^125I-hUII on HEK-293 cells expressing UT; details: displacement of ^125I-hUII (0.2 nM), HEK-293 cells expressing human UT, 2 h 22 °C
Description: Cultured HEK-293 cells expressing UT-MYC were rinsed three times with PBS, dried under a cold air stream and stored at −80 °C until binding experiments. […] At the end of the incubation, cells were washed three times with assay buffer, solubilised with 1% SDS and the radioactivity was counted in a gamma counter (LKB Wallac, Evry, France).

human UT [8] = target: T2, human UT; test: Calcium assay (fluo-4, FlexStation) in HEK-293 cells expressing UT; assay type: cell-based; details: [Ca^2+]c increase, HEK-293 cells expressing human UT, 10^−11 to 10^−6 M
Description: HEK-293 cells expressing UT-MYC were plated at 50,000 cells/well into clear-bottom, black, 96-well plates (Corning, Bagneaux-sur-Loing, France), previously coated with poly-L-ornithine (100 µg/mL, 1 h, 37 °C) and incubated overnight in culture medium. After 24 h, cells were rinsed twice with HBSS buffer (20 mM HEPES, 0.5 mM MgCl2, 2.6 mM CaCl2, 7.7 mM Na2CO3, 1.4 mM MgSO4, 5.3 mM KCl, 138 mM NaCl, 0.1% BSA, 5.5 mM glucose, 2.5 mM probenecid, pH 7.4) (Sigma Aldrich, Saint-Quentin-Fallavier, France) and loaded (40 min at 37 °C) with the calcium-sensitive dye fluo-4 AM (ThermoFisher Scientific, Montigny-Le-Bretonneux, France) containing pluronic acid (20% in DMSO). […] Data were expressed as the ratio of maximum response to the average control value.

[9] = total radioactivity, Ratio tumour/muscle

Row | IC50 (human UT [7]) | EC50 (human UT [8]) | SMILES | accumulation of UT in cytosolic puncta (confocal microscopy) (human UT-GFP) | internalisation rate of UT (ELISA) (human UT [1]) | tissue to tissue ratio at 24 h (in vivo; total radioactivity) | tissue to tissue ratio at 24 h (in vivo; [9]) | tissue to tissue ratio at 24 h (in vivo; tumour/muscle ratio) | tissue to tissue ratio at 24 h (in vivo) | tissue to tissue ratio at 24 h (in vivo; Ratio tumour/muscle) | other results
1 | – | – | CC(C)[C@H](NC(=O)[C@@H]1CSSC[C@H](NC(=O)[C@H](CC(=O)O)NC(=O)[C@@H]2CCCN2C(=O)[C@@H](NC(=O)[C@@H](N)CCC(=O)O)[C@@H](C)O)C(=O)N[C@@H](Cc2ccccc2)C(=O)N[C@@H](Cc2c[nH]c3ccccc23)C(=O)N[C@@H](CCCCN)C(=O)N[C@@H](Cc2ccc(O)cc2)C(=O)N1)C(=O)O [hUII, H2N-ETPDc-[CFWKYC]V-CO2H] | promoted a strong accumulation of UT in cytosolic puncta into cells | provoked a dose-dependent increase in internalisation rate of UT | – | – | – | – | – | proliferation rate (DLD-1 cells [2]): increase the proliferation rate; chemotactic migration (A549 cells [3]): stimulated chemotactic migration; proliferation rate (A549 cells [4]): increase the proliferation rate; chemotactic migration (DLD-1 cells [5]): stimulated chemotactic migration
2 | – | – | CC(C)[C@H](NC(=O)[C@@H]1CSSC(C)(C)[C@H](NC(=O)[C@H](CC(=O)O)NC(=O)CCCCCNC(=O)CN2CCN(CC(=O)O)CCN(CC(=O)O)CCN(CC(=O)O)CC2)C(=O)N[C@@H](Cc2ccccc2)C(=O)N[C@H](Cc2c[nH]c3ccccc23)C(=O)N[C@@H](CCCN)C(=O)N[C@@H](Cc2ccc(O)cc2)C(=O)N1)C(=O)O [^111In-DOTA-urantide, metal not drawn] ({DOTA-Ahx}-D[Pen]F[dW][Orn]YCV-OH; disulfide 2-7) | – | – | 2.08 ± 0.45 | 2.47 ± 0.15 | ~2.5 | – | – | –
3 | – | – | CC(C)[C@H](NC(=O)[C@@H]1CSSC[C@H](NC(=O)[C@H](CC(=O)O)NC(=O)[C@@H]2CCCN2C(=O)[C@@H](NC(=O)[C@H](CCC(=O)O)NC(=O)CCCCCNC(=O)CN2CCN(CC(=O)O)CCN(CC(=O)O)CCN(CC(=O)O)CC2)[C@@H](C)O)C(=O)N[C@@H](Cc2ccccc2)C(=O)N[C@@H](Cc2c[nH]c3ccccc23)C(=O)N[C@@H](CCCCN)C(=O)N[C@@H](Cc2ccc(O)cc2)C(=O)N1)C(=O)O [^111In-DOTA-hUII, metal not drawn] | – | – | 2.85 ± 0.66 | 3.33 ± 0.96 | ~2.5 | – | – | radioactive DOTA-peptide cleared from animals [6]: more than 90%; Percent of Radiolabelled Peptide (in vitro): 98 ± 2 (%); metabolised at 3 h, 0.6 µM (in vitro; human, serum): 30%; remaining at 1 h, 0.6 µM (in vitro; human, serum): 82 ± 2%; remaining at 3 h, 0.6 µM (in vitro; human, serum): 71 ± 4%
4 | 29 ± 11.2 nM | 50.5 ± 16.1 nM | CC(C)[C@H](NC(=O)[C@@H]1CSSC(C)(C)[C@H](NC(=O)[C@@H](N)CC(=O)O)C(=O)N[C@@H](Cc2ccccc2)C(=O)N[C@H](Cc2c[nH]c3ccccc23)C(=O)N[C@@H](CCCN)C(=O)N[C@@H](Cc2ccc(O)cc2)C(=O)N1)C(=O)O [urantide, c-[Pen^5, D-Trp^7, Orn^8]hUII4-11, reference compound] (H-D[Pen]F[dW][Orn]YCV-OH; disulfide 2-7; N-terminus and C-terminus assumed) | ineffective | failed to provoke UT internalisation | – | – | – | – | – | –
5 | 9.13 ± 2.06 nM | 19.4 ± 2.47 nM | CC(C)[C@H](NC(=O)[C@@H]1CSSC[C@H](NC(=O)[C@H](CC(=O)O)NC(=O)[C@@H]2CCCN2C(=O)[C@@H](NC(=O)[C@H](CCC(=O)O)NC(=O)CCCCCNC(=O)CN2CCN(CC(=O)O)CCN(CC(=O)O)CCN(CC(=O)O)CC2)[C@@H](C)O)C(=O)N[C@@H](Cc2ccccc2)C(=O)N[C@@H](Cc2c[nH]c3ccccc23)C(=O)N[C@@H](CCCCN)C(=O)N[C@@H](Cc2ccc(O)cc2)C(=O)N1)C(=O)O [DOTA-hUII, DOTA-Ahx-ETPD[CFWKYC]V] | promoted a strong accumulation of UT in cytosolic puncta into cells | exerted similar effects, with very close potency and efficacy | – | – | – | 2.85 ± 0.66 | 3.33 ± 0.96 | –
6 | – | – | CC(C)[C@H](NC(=O)[C@@H]1CSSC(C)(C)[C@H](NC(=O)[C@H](CC(=O)O)NC(=O)CCCCCNC(=O)CN2CCN(CC(=O)O)CCN(CC(=O)O)CCN(CC(=O)O)CC2)C(=O)N[C@@H](Cc2ccccc2)C(=O)N[C@H](Cc2c[nH]c3ccccc23)C(=O)N[C@@H](CCCN)C(=O)N[C@@H](Cc2ccc(O)cc2)C(=O)N1)C(=O)O [DOTA-urantide, DOTA-Ahx-D[Pen-F-W-Orn-YC]V] ({DOTA-Ahx}-D[Pen]F[dW][Orn]YCV-OH; disulfide 2-7) | ineffective | failed to provoke UT internalisation | – | – | – | 2.08 ± 0.45 | 2.47 ± 0.15 | –
